In US8173693B2, “Benzenesulfonamide derivatives and pharmaceutical composition thereof” (Purzer Pharmaceutical Co., Ltd., priority 2010, dated 2012):

Tests used:
Experiment in all cases: SRB assay
Format in all cases: cell-based
[1] = test system: Human breast carcinoma MCF-7 cells; conditions: MCF7, 48 hr
[2] = test system: Human gastric adenocarcinoma AGS cells; conditions: 48 hr
[3] = test system: lung carcinoma A549 cells; conditions: Homo sapiens, 48 hr

`COc1ccc(S(=O)(=O)Nc2cccc3c2[nH]c2c(C)ccc(C)c23)cc1` [Compound 6c, N-(5,8-Dimethyl-9H-carbazol-1-yl)-4-methoxybenzenesulfonamide] gave a GI50 [1] of 630 nM, a GI50 [2] of 600 nM and an IC50 [3] of 10000 nM.
